{
  "source": "patent US12275684B2",
  "about": "“Methods for making and using endoxifen” (Atossa Therapeutics, Inc., priority 2017, dated 2025)",
  "assay": "Placebo controlled, dose escalation pharmacokinetic study of oral (Z)-Endoxifen capsules (serum endoxifen; incl. accumulation ratios and dose linearity)",
  "type": "in vivo, human",
  "settings": "for AUC(0-t) / Cmax / Tmax / half-life / AUC(0-inf) / AUC / Vd/F: female, human, serum, po; for AUC(0-inf): read-out: AUC0-inf; for AUC: read-out: AUC to last time point; for Vd/F: read-out: volume of distribution (Vd/F); for time to attain steady state: once daily oral dosing",
  "source_text": "An objective of the study was to assess the safety and tolerability of oral (Z)-Endoxifen when administered […] orally as a capsule to healthy female volunteers. A secondary objective was to assess the pharmacokinetics of multiple doses of oral (Z)-Endoxifen in the subjects.\nGenerally, healthy female volunteers aged ≥18 years and ≤65 years were enrolled. 24 participants were enrolled in 3 cohorts and will be administered study drug orally. Three dose levels of orally administered (Z)-Endoxifen were investigated in 3 cohorts. In each cohort participants were randomized to receive an oral (Z)-Endoxifen or placebo in a blinded fashion. Enteric-resistant capsules used in the study were designed as delayed release capsules to resist rupture for at least 30 minutes, but typically, for about 2 hours, under gastric conditions and then open fully in intestinal fluid (DRCaps; Capsugel, a Lonza Company, USA). Enteric-resistant (Swedish Orange size Zero (0); Capsugel, USA) DRCaps capsules manually filled with 1, 2 or 4 mg of (Z)-endoxifen neat in compliance with GMP requirements were used. Placebo capsules contained microcrystalline cellulose an inert common capsule and tablet excipient.\nEach cohort enrolled 8 participants, with 6 participants receiving (Z)-Endoxifen 1 mg capsules orally at 1 mg (Cohort 1), 2 mg (Cohort 2) or 4 mg (Cohort 3) doses and 2 participants receiving matching placebo capsules. In Cohort 1 (Dose Level=1 mg) two participants (sentinels) were dosed 24 hours prior to the remaining participants. One sentinel was dosed with (Z)-Endoxifen and the other with placebo. The remaining six participants in Cohort 1 were dosed as no safety concerns were identified in the sentinel participants. The non-sentinel participants in Cohort 1 were admitted to the clinical research facility at least one day later than the sentinels. There were no sentinels in Cohorts 2 and 3.\nParticipant engagement in this study was for a period of 56 days. These included a 28 day screening period, and a 7 day post treatment period for Pharmacokinetic (PK) sampling. There were two confinement periods, one at the beginning and one at the end of the dosing periods. Participants were confined to the clinical facility on Days-1 through to Day 2 and Days 21 and 22. If participants were to experience any clinically significant adverse events during the study, they would have been required to remain in the clinical facility for further observation at the discretion of the Principal Investigator (PI).\nHealthy female volunteers were screened within 28 days prior to commencement of dosing. Participants were admitted to the clinical facility on Day-1 for up to 3 days. The first dose of (Z)-Endoxifen or placebo capsules was administered on Day 1. Following completion of all safety assessments and sampling for PK analyses, participants were discharged from the clinical facility on Day 2. The first dose on Day 1 was followed by a 6-day treatment free period (Days 2-7). Each participant returned to the clinical facility for PK blood draws and safety assessments during the treatment free period on study Days 4 and 6. On Day 8 participants commenced daily administration of (Z)-Endoxifen capsules or placebo capsules for 14 consecutive days (Days 8-21). Participants were supplied with study drug capsules and asked to self administer daily. Participants visited the clinical facility on Days 11, 14 and 17, prior to dose administration, for PK blood draws and safety assessments. On the morning of Day 21 each participant returned to the clinical facility prior to dose administration and were confined to the facility until Day 22 to allow for the collection of PK blood draws and safety assessments. The Day 21 dose was the last administration of study drug. Participants were discharged from the clinical facility on Day 22 and returned for PK blood draws and safety assessments on study Days 24, 26, and 28. […]",
  "key": {"[1]": {"settings": "4 mg, Day 1, dose 4 mg oral, GeoMean, N 6"}, "[2]": {"settings": "4 mg, Day 1, dose 4 mg oral, Mean, N 6"}, "[3]": {"settings": "4 mg, Day 1, dose 4 mg oral, Median, N 6"}},
  "note": "Read-outs that look alike come from different tables or passages of the source.",
  "data": [
    {"smiles": "CC/C(=C(\\c1ccc(O)cc1)c1ccc(OCCNC)cc1)c1ccccc1", "note": "[(Z)-Endoxifen, (Z)-4-(1-(4-(2-(methylamino)ethoxy)phenyl)-2-phenylbut-1-enyl) phenol]", "values": [
      {"measurement": "AUC(0-t)", "setting": "2 mg/day, Day 21, 2 mg/day oral (n = 6), read-out: AUC24 hr, Arithmetic Mean", "result": 911, "unit": "ng·h/mL"},
      {"measurement": "Cmax", "setting": "2 mg/day, Day 21, 2 mg/day oral (n = 6), read-out: Cmax, Arithmetic Mean", "result": 50, "unit": "ng/mL"},
      {"measurement": "Tmax", "setting": "2 mg/day, Day 21, 2 mg/day oral (n = 6), read-out: Median Tmax", "result": 4, "unit": "h"},
      {"measurement": "Tmax", "setting": "2 mg/day, Day 21, 2 mg/day oral (n = 6), read-out: Tmax (Range)", "result": "2 to 6.05", "unit": "h"},
      {"measurement": "half-life", "setting": "2 mg/day, Day 21, 2 mg/day oral (n = 6), read-out: t1/2, Arithmetic Mean (converted)", "result": 43.4, "unit": "h"},
      {"measurement": "AUC(0-inf)", "setting": "[1]", "result": 1700, "unit": "ng·h/mL"},
      {"measurement": "AUC(0-t)", "setting": "4 mg, Day 1, dose 4 mg oral, GeoMean, N 6, read-out: AUC24hr", "result": 521, "unit": "ng·h/mL"},
      {"measurement": "AUC", "setting": "[1]", "result": 1420, "unit": "ng·h/mL"},
      {"measurement": "Cmax", "setting": "4 mg, Day 1, dose 4 mg oral, GeoMean, N 6, read-out: Cmax", "result": 29.1, "unit": "ng/mL"},
      {"measurement": "Tmax", "setting": "4 mg, Day 1, dose 4 mg oral, GeoMean, N 6, read-out: Tmax", "result": 5.15, "unit": "h"},
      {"measurement": "half-life", "setting": "4 mg, Day 1, dose 4 mg oral, GeoMean, N 6, read-out: apparent terminal half life (t½) (converted)", "result": 40.7, "unit": "h"},
      {"measurement": "Vd/F", "setting": "[1]", "result": 138, "unit": "L"},
      {"measurement": "AUC(0-inf)", "setting": "[2]", "result": 2020, "unit": "ng·h/mL"},
      {"measurement": "AUC(0-t)", "setting": "4 mg, Day 1, dose 4 mg oral, Mean, N 6, read-out: AUC24hr", "result": 587, "unit": "ng·h/mL"},
      {"measurement": "AUC", "setting": "[2]", "result": 1650, "unit": "ng·h/mL"},
      {"measurement": "Cmax", "setting": "4 mg, Day 1, dose 4 mg oral, Mean, N 6, read-out: Cmax", "result": 32.5, "unit": "ng/mL"},
      {"measurement": "Tmax", "setting": "4 mg, Day 1, dose 4 mg oral, Mean, N 6, read-out: Tmax", "result": 5.56, "unit": "h"},
      {"measurement": "half-life", "setting": "4 mg, Day 1, dose 4 mg oral, Mean, N 6, read-out: apparent terminal half life (t½) (converted)", "result": 41.6, "unit": "h"},
      {"measurement": "Vd/F", "setting": "[2]", "result": 154, "unit": "L"},
      {"measurement": "AUC(0-inf)", "setting": "[3]", "result": 1760, "unit": "ng·h/mL"},
      {"measurement": "AUC(0-t)", "setting": "4 mg, Day 1, dose 4 mg oral, Median, N 6, read-out: AUC24hr", "result": 539, "unit": "ng·h/mL"},
      {"measurement": "AUC", "setting": "[3]", "result": 1420, "unit": "ng·h/mL"},
      {"measurement": "Cmax", "setting": "4 mg, Day 1, dose 4 mg oral, Median, N 6, read-out: Cmax", "result": 29.5, "unit": "ng/mL"},
      {"measurement": "Tmax", "setting": "4 mg, Day 1, dose 4 mg oral, Median, N 6, read-out: Tmax", "result": 5.08, "unit": "h"},
      {"measurement": "half-life", "setting": "4 mg, Day 1, dose 4 mg oral, Median, N 6, read-out: apparent terminal half life (t½) (converted)", "result": 39.9, "unit": "h"},
      {"measurement": "Vd/F", "setting": "[3]", "result": 131, "unit": "L"},
      {"measurement": "AUC(0-t)", "setting": "4 mg, Day 21, dose 4 mg oral once daily, GeoMean, N 6, read-out: AUC24hr", "result": 1740, "unit": "ng·h/mL"},
      {"measurement": "Cmax", "setting": "4 mg, Day 21, dose 4 mg oral once daily, GeoMean, N 6, read-out: Cmax", "result": 100, "unit": "ng/mL"},
      {"measurement": "Tmax", "setting": "4 mg, Day 21, dose 4 mg oral once daily, GeoMean, N 6, read-out: Tmax", "result": 4.75, "unit": "h"},
      {"measurement": "half-life", "setting": "4 mg, Day 21, dose 4 mg oral once daily, GeoMean, N 6, read-out: apparent terminal half life (t½) (converted)", "result": 44.6, "unit": "h"},
      {"measurement": "Vd/F", "setting": "4 mg, Day 21, dose 4 mg oral once daily, GeoMean, N 6", "result": 148, "unit": "L"},
      {"measurement": "AUC(0-t)", "setting": "4 mg, Day 21, dose 4 mg oral once daily, Mean, N 6, read-out: AUC24hr", "result": 2040, "unit": "ng·h/mL"},
      {"measurement": "Cmax", "setting": "4 mg, Day 21, dose 4 mg oral once daily, Mean, N 6, read-out: Cmax", "result": 115, "unit": "ng/mL"},
      {"measurement": "Tmax", "setting": "4 mg, Day 21, dose 4 mg oral once daily, Mean, N 6, read-out: Tmax", "result": 5.33, "unit": "h"},
      {"measurement": "half-life", "setting": "4 mg, Day 21, dose 4 mg oral once daily, Mean, N 6, read-out: apparent terminal half life (t½) (converted)", "result": 45.1, "unit": "h"},
      {"measurement": "Vd/F", "setting": "4 mg, Day 21, dose 4 mg oral once daily, Mean, N 6", "result": 189, "unit": "L"},
      {"measurement": "AUC(0-t)", "setting": "4 mg, Day 21, dose 4 mg oral once daily, Median, N 6, read-out: AUC24hr", "result": 2470, "unit": "ng·h/mL"},
      {"measurement": "Cmax", "setting": "4 mg, Day 21, dose 4 mg oral once daily, Median, N 6, read-out: Cmax", "result": 131, "unit": "ng/mL"},
      {"measurement": "Tmax", "setting": "4 mg, Day 21, dose 4 mg oral once daily, Median, N 6, read-out: Tmax", "result": 5, "unit": "h"},
      {"measurement": "half-life", "setting": "4 mg, Day 21, dose 4 mg oral once daily, Median, N 6, read-out: apparent terminal half life (t½) (converted)", "result": 45.3, "unit": "h"},
      {"measurement": "Vd/F", "setting": "4 mg, Day 21, dose 4 mg oral once daily, Median, N 6", "result": 106, "unit": "L"},
      {"measurement": "AUC(0-t)", "setting": "4 mg/day, Day 1, 4 mg/day oral (n = 6), read-out: AUC24 hr, Arithmetic Mean", "result": 587, "unit": "ng·h/mL"},
      {"measurement": "Cmax", "setting": "4 mg/day, Day 1, 4 mg/day oral (n = 6), read-out: Cmax, Arithmetic Mean", "result": 32.5, "unit": "ng/mL"},
      {"measurement": "Tmax", "setting": "4 mg/day, Day 1, 4 mg/day oral (n = 6), read-out: Median Tmax", "result": 5.08, "unit": "h"},
      {"measurement": "Tmax", "setting": "4 mg/day, Day 1, 4 mg/day oral (n = 6), read-out: Tmax (Range)", "result": "3 to 6", "unit": "h"},
      {"measurement": "half-life", "setting": "4 mg/day, Day 1, 4 mg/day oral (n = 6), read-out: t1/2, Arithmetic Mean (converted)", "result": 41.6, "unit": "h"},
      {"measurement": "AUC(0-t)", "setting": "4 mg/day, Day 21, 4 mg/day oral (n = 6), read-out: AUC24 hr, Arithmetic Mean", "result": 2040, "unit": "ng·h/mL"},
      {"measurement": "Cmax", "setting": "4 mg/day, Day 21, 4 mg/day oral (n = 6), read-out: Cmax, Arithmetic Mean", "result": 115, "unit": "ng/mL"},
      {"measurement": "Tmax", "setting": "4 mg/day, Day 21, 4 mg/day oral (n = 6), read-out: Median Tmax", "result": 5, "unit": "h"},
      {"measurement": "Tmax", "setting": "4 mg/day, Day 21, 4 mg/day oral (n = 6), read-out: Tmax (Range)", "result": "2 to 10", "unit": "h"},
      {"measurement": "half-life", "setting": "4 mg/day, Day 21, 4 mg/day oral (n = 6), read-out: t1/2, Arithmetic Mean (converted)", "result": 45.1, "unit": "h"},
      {"measurement": "time to attain steady state", "result": "≤ 7", "unit": "days"},
      {"measurement": "time to attain steady state", "setting": "listed as (Z)-endoxifen", "result": "approximately 7 days"}
    ]}
  ]
}
